# In ChEMBL document CHEMBL3774347, “Docking and Linking of Fragments To Discover Jumonji Histone Demethylase Inhibitors” (J Med Chem, 2016):
# pIC50: −log10 of the molar value.
# Biological target: T1, Lysine-specific demethylase 4C (Homo sapiens, UniProt Q9H3R0)
# T1 sequence (Q9H3R0 whole entry): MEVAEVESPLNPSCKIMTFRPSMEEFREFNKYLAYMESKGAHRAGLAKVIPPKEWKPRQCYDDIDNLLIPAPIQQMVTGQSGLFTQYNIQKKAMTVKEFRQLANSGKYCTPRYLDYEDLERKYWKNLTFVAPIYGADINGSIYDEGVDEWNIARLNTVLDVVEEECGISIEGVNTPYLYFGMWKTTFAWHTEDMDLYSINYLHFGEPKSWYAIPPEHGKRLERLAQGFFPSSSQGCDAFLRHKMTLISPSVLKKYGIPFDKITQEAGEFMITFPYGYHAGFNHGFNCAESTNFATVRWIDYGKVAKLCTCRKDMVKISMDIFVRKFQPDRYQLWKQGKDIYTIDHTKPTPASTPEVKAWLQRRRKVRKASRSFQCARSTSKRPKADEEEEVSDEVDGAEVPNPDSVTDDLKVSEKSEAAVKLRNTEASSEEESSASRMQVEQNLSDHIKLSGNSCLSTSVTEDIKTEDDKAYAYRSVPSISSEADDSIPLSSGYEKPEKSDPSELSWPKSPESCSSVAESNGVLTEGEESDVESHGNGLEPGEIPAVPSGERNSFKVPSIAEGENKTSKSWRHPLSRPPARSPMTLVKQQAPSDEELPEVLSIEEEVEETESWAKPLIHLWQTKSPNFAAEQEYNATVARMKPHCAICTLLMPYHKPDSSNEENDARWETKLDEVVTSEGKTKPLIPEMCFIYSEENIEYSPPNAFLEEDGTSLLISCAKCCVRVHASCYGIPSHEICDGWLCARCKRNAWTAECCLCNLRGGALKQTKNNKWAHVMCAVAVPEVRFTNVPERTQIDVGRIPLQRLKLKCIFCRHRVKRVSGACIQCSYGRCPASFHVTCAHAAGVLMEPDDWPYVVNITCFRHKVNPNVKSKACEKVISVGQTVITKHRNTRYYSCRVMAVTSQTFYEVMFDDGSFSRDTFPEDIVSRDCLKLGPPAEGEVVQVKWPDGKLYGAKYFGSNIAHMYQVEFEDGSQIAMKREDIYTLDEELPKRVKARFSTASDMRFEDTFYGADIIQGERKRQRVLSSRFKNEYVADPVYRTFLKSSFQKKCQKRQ
# Assay: Inhibition of N-terminal His6-tagged KDM4C (1 to 352 residues) (unknown origin) expressed in Escherichia coli Rosetta 2(DE3)pLysS using biotinylated histone H3 (1 to 21 residues) lysine 9 trimethylated peptide/2 uM alpha-ketoglutarate as substrate/cofactor measured after 45 mins by TR-FRET assay
# Settings: read-out: IC50
row,Compound,pIC50
1,O=C(O)c1ccnc(-c2cc(NC(=O)c3ccc(O)cc3)ccc2O)c1,7.19
2,CC(=O)Nc1ccc(O)c(-c2cc(C(=O)O)ccn2)c1,5.92
3,Cc1cc(C(=O)Nc2ccc(O)c(-c3cc(C(=O)O)ccn3)c2)no1,7.19
4,COc1cccc(CC(=O)Nc2ccc(O)c(-c3cc(C(=O)O)ccn3)c2)c1,6.85
5,COCC(=O)Nc1ccc(O)c(-c2cc(C(=O)O)ccn2)c1,6.85

# Biological target: T2, Lysine-specific demethylase 4D (Homo sapiens, UniProt Q6B0I6)
# T2 sequence (Q6B0I6 whole entry): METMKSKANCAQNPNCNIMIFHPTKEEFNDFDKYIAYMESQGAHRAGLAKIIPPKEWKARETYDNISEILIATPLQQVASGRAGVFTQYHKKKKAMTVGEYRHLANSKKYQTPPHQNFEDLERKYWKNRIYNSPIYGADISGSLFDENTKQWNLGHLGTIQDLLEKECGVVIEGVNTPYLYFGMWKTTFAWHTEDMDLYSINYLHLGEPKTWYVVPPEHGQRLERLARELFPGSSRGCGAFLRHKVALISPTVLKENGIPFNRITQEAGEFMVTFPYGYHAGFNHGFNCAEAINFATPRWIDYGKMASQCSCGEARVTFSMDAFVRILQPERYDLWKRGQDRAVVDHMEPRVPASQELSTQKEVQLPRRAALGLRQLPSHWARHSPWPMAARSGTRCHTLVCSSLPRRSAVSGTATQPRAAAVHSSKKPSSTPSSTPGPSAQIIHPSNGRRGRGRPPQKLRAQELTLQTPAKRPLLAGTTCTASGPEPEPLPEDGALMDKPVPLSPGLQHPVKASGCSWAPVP
# Assay: Inhibition of KDM4D (unknown origin) expressed in Escherichia coli using H3 (1 to 21 residues) K9Me3-GGK-Biotin KDM4 Cognate Ligand/10 uM alpha-ketoglutarate as substrate/cofactor preincubated for 5 mins followed by substrate addition measured after 20 mins by alphascreen assay
# Settings: not given
row,Compound,pIC50
1,O=C(O)c1ccnc(-c2cc(NC(=O)c3ccc(O)cc3)ccc2O)c1,4.89
2,CC(=O)Nc1ccc(O)c(-c2cc(C(=O)O)ccn2)c1,4.85
3,Cc1cc(C(=O)Nc2ccc(O)c(-c3cc(C(=O)O)ccn3)c2)no1,5.04
4,COc1cccc(CC(=O)Nc2ccc(O)c(-c3cc(C(=O)O)ccn3)c2)c1,4.96
5,COCC(=O)Nc1ccc(O)c(-c2cc(C(=O)O)ccn2)c1,5.38

# Biological target: T1, Lysine-specific demethylase 4C
# Assay: Inhibition of N-terminal His6-tagged KDM4C (1 to 352 residues) (unknown origin) expressed in Escherichia coli Rosetta 2(DE3)pLysS using biotinylated histone H3 (1 to 21 residues) lysine 9 trimethylated peptide/50 uM alpha-ketoglutarate as substrate/cofactor measured after 45 mins by TR-FRET assay
# Settings: read-out: IC50
row,Compound,pIC50
1,O=C(O)c1ccnc(-c2cc(NC(=O)c3ccc(O)cc3)ccc2O)c1,5.59
2,CC(=O)Nc1ccc(O)c(-c2cc(C(=O)O)ccn2)c1,4.40
3,Cc1cc(C(=O)Nc2ccc(O)c(-c3cc(C(=O)O)ccn3)c2)no1,5.30
4,COc1cccc(CC(=O)Nc2ccc(O)c(-c3cc(C(=O)O)ccn3)c2)c1,5.82
5,COCC(=O)Nc1ccc(O)c(-c2cc(C(=O)O)ccn2)c1,5.13
